According to US8309546B2, “Morpholinopurine derivatives” (Daiichi Sankyo Company, Limited, priority 2008, dated 2012):

Columns and labels:
PI3Kα = PI3Kα (Homo sapiens, UniProt P42336); test: PI3K kinase activity inhibition assay; type: biochemical; conditions: Kinase-Glo Plus ATP detection, read-out: IC50 against PI3K
Procedure: PI3Kα kinase activity was determined in the presence and absence of a test compound. The test compound was dissolved in DMSO and diluted serially with an ATP solution (30 μm ATP, 50 mM HEPES, pH 7.4, 50 mM NaCl, 0.05% CHAPS, 10 mM MgCl2, and 5 mM dithiothreitol [DTT]). First, 7 μl each of the serially diluted test compound solutions was added to each well of a black 384-well plate. Subsequently, 7 μl of a phosphatidylinositol 4,5-bisphosphate (PIP2) solution (45 μm PIP2, 50 mM HEPES, pH 7.4, 50 mM NaCl, 0.05% CHAPS, 10 mM MgCl2, and 5 mM DTT) was added to each well of the 384-well plate. Finally, 7 μl of a solution containing PI3Kα (50 nM PI3Kα, 50 mM HEPES, pH 7.4, 50 mM NaCl, 0.05% CHAPS, 10 mM MgCl2, and 5 mM DTT) was added to each well of the 384-well plate to initiate a reaction. The mixture was reacted at room temperature for 2 hours and then 21 μl of the Kinase-Glo Plusreagent (Promega) was, added to each well of the 384-well plate to terminate the reaction. After the termination of the reaction, the solution was left standing for 15 minutes and then luminescence was measured with ARVO (PerkinElmer Co., Ltd.) to detect ATP remaining in the reaction solution.
The amount of ATP consumed in the reaction was obtained for each well and used as an indicator of PI3Kαkinase activity. The PI3Kα kinase activity in wells not containing the test compound was calculated by the following formula (1). Furthermore, the PI3Kα kinase activity in wells containing the test compound was calculated by the following formula (2). The PI3Kα inhibitory activity (%) of the test compound was calculated by the following formula (3). PI3Kα kinase activity in wells not containing the test compound=B−C (1) PI3Kα kinase activity in wells containing the test compound=B−P (2) PI3Kα inhibitory activity (%) of test compound=100−100×[(B−P)/(B−C)] (3) B: Measured value in wells not containing PI3Kα or the test compound C: Measured value in wells containing PI3Kα and not containing the test compound P: Measured value in wells containing PI3Kα and the test compound
Furthermore, an optimal curve was calculated with Graph Pad Prism 4 using concentrations of the serially diluted test compound solutions and PI3Kα inhibitory activity (%) at each concentration to obtain the concentration showing 50% inhibition as the IC50 value of PI3Kα inhibitory activity.

[1] = molecular target: T1, human mTOR (His-tagged mTOR (1362C)) (Homo sapiens, UniProt P42345); test: mTOR kinase activity inhibition assay; type: biochemical; conditions: HTRF, read-out: IC50 against mTOR
T1 construct: the 1362 to 2549 amino acid portion on the C terminus side of human mTOR; His tag (N); made in house
T1 sequence (P42345 1362-2549): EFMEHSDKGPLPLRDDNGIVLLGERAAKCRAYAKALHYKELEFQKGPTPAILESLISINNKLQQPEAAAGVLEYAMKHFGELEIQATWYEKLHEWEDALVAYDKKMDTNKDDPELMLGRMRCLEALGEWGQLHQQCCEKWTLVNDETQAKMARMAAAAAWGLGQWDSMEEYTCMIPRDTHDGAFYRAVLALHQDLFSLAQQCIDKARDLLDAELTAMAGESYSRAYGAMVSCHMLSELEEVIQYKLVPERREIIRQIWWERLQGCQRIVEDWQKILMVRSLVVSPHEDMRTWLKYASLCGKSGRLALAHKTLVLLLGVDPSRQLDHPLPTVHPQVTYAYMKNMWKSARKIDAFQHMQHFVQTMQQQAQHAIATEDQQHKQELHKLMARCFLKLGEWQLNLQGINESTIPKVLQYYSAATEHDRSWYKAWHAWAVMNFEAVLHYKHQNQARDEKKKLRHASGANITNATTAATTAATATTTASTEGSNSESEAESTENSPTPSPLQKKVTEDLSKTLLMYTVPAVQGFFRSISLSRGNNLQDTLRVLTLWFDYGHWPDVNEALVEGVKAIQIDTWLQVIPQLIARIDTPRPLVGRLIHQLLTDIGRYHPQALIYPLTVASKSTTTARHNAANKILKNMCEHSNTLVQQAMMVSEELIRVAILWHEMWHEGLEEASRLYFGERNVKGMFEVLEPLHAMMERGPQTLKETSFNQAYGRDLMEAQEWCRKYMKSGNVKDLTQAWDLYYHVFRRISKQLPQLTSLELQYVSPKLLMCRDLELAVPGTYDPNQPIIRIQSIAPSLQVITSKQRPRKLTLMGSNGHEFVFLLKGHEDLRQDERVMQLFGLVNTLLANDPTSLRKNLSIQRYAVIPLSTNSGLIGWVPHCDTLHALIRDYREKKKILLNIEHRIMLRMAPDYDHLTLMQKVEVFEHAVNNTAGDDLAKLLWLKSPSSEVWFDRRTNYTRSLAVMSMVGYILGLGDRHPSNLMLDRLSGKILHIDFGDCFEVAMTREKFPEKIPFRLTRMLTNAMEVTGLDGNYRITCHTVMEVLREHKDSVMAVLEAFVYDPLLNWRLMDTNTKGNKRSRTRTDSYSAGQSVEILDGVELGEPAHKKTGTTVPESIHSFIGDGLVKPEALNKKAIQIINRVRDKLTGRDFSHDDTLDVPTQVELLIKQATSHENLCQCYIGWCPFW
Procedure: The mTOR kinase activity was determined in the presence and absence of a test compound. A substrate peptide is phosphorylated by mTOR kinase activity. A complex of streptavidin-XL665 and anti-phosphorylated S6K (Thr389) antibody-anti-mouse IgG-cryptate binds to this phosphorylated peptide. At this time, irradiation of excitation light induces transfer of fluorescence resonance energy from the excited cryptate to XL665, emitting fluorescence at 665 nm. Utilizing this principle, mTOR kinase activity was detected. When the mTOR inhibitor is present, phosphorylation of a substrate peptide is inhibited, and the biding of the above-mentioned complex to the substrate peptide is inhibited.
A His tag was introduced into the N terminus end of the 1362 to 2549 amino acid portion on the C terminus side of human mTOR, and a cell line was prepared, so that His-tagged mTOR should be constantly expressed in a HEK293 cell. A cell lysate was prepared from this HEK293 cell which constantly expressed His-tagged mTOR (1362C), and a crude product of His-tagged mTOR (1362C) was obtained by a usual method utilizing His tag.
Subsequently, an mTOR enzyme solution was prepared which contained the above-mentioned His-tagged mTOR (1362C) enzyme and 8 μg/ml biotinylated peptide (Biotin-Ahx-[…]-amide [Sigma]), as well as 50 mM HEPES (pH 7.5), 20 mM MnCl2, 1 mg/ml BSA, a suitable amount of protease inhibitor cocktail (Complete EDTA free, Roche Ltd.), 100 ng/ml calyculin A, and 4 μg/ml cantharidin as other components.
The test compound was dissolved in dimethyl sulfoxide (DMSO) and serially diluted with 20 μm ATP solution (50 mM HEPES (pH 7.5), 20 μM ATP) to obtain concentrations required for the assay. 5 μl of this compound solution was added to each well of a 384-well small volume white plate manufactured by Greiner Bio-One Co., Ltd.
5 μl of the mTOR enzyme solution was added to the above-mentioned well containing the test compound and the resulting mixture was left standing for 3 hours room temperature to proceed an enzymatic reaction.
The same procedure was performed using a solution obtained by dissolving DMSO in 20 μM ATP solution as a positive control and a solution obtained by dissolving DMSO in 50 mM HEPES buffer (pH 7.5) as a negative control.
After the enzymatic reaction, 5 μl each of an europium solution (a solution obtained by dissolving anti-mouse IgG-cryptate [SCETI Medical Labo K.K.] and anti-phosphorylation S6K [Thr389] antibody [Cell Signaling Technology Inc.] in 50 mM HEPES [pH 7.5], 100 mM EDTA, and 1.5 mg/ml BSA) and an XL665 solution (a solution obtained by dissolving Streptavidin-XL 665 [SCETI Medical Labo K.K.] in 50 mM HEPES [pH 7.5], 100 mM EDTA, 0.8 M KF, and 1.5 mg/ml BSA) were added in this order and mixed and the resulting mixture was left standing overnight at 4° C. On the following day, the mixture was returned to room temperature and then irradiated with 337-nm excitation light and fluorescence at 620 and 665 nm was measured with RUBYstar (BMG LABTECH JAPAN Ltd.).
mTOR inhibitory activity (%) was calculated using the ratio calculated from the measured values as an indicator of enzyme activity. Here, the ratio was calculated by the following formula (1). Ratio=10,000×fluorescence at 665 nm/fluorescence at 620 nm (1)
mTOR enzyme inhibitory activity (%) was calculated by the following formula (2). mTOR enzyme inhibitory activity (%)=100×[(P−S)/(P−N)] (2) P: Ratio in positive control well N: Ratio in negative control well S: Ratio in well containing the test compound
Furthermore, an optimal curve was created using the concentrations of the serially diluted test compound solutions and mTOR enzyme inhibitory activity (%) at each concentration to obtain the concentration showing 50% inhibition as the IC50 value of mTOR enzyme inhibitory activity.

[2] = system: human endometrial cancer cell strain AN3CA; test: Cell growth inhibition test (MTT), AN3CA; type: cell-based; conditions: AN3-CA, 72 h, 3 days culture, read-out: concentration exhibiting anti-cell effect (GI50)
Procedure: (§1) After a cultured cancer cell strain was treated with a test compound for a predetermined period, a cell growth inhibition test was performed by measuring the living cell count by the 3-(4,5-dimethylthiazol-2-yl)-2,5-diphenyltetrazoliumbromide (MTT) method.
(§2) Human endometrial cancer cell strain AN3CA, human ovary cancer cell strain IGROV1, and human colon cancer cell strain HT29 were seeded in a 96-well plate at 5000, 1000, and 5000 cells, respectively, per well. On the following day of seeding, a test compound having a predetermined concentration was added and the culture was continued at 37° C. in 5% CO2 for 3 days. On the final day of culture, an MTT reaction solution was added and the resulting mixture was reacted for 4 hours to form formazan by dehydrogenases contained in living cells. Subsequently, the culture broth was removed, DMSO was added to solubilize formazan, and the amount of produced formazan was determined by measuring absorbance at 540 nm using a microplate reader.
(§3) Since correlations of the amount of produced formazan and the living cell count had been confirmed, the cell growth rate was calculated by the following formula. Cell growth rate (T/C %) after addition of test compound=100×[(B−C)/(A−C)] A: Absorbance of well not containing test compound (final culture day) B: Absorbance of well containing test compound (final culture day) C: Absorbance of well immediately before addition of test compound (following day of cell seeding)
(§4) Furthermore, the cell growth rate at each concentration of serially diluted test compound solutions was obtained, and the concentration of the test compound resulting in a 50% growth rate was obtained as the GI50 value from two concentrations including 50% therebetween and the growth rates were selected.

[3] = system: human colon cancer cell strain HT29; test: Cell growth inhibition test (MTT), HT29; type: cell-based; conditions: HT-29, 72 h, HT29, 3 days culture, read-out: concentration exhibiting anti-cell effect (GI50)
Procedure: as §1, §2, §3, §4

[4] = system: human ovary cancer cell strain IGROV1; test: Cell growth inhibition test (MTT), IGROV1; type: cell-based; conditions: IGROV-1, 72 h, IGROV1, 3 days culture, read-out: concentration exhibiting anti-cell effect (GI50)
Procedure: as §1, §2, §3, §4

Sequence of PI3Kα (P42336 whole entry, species assumed): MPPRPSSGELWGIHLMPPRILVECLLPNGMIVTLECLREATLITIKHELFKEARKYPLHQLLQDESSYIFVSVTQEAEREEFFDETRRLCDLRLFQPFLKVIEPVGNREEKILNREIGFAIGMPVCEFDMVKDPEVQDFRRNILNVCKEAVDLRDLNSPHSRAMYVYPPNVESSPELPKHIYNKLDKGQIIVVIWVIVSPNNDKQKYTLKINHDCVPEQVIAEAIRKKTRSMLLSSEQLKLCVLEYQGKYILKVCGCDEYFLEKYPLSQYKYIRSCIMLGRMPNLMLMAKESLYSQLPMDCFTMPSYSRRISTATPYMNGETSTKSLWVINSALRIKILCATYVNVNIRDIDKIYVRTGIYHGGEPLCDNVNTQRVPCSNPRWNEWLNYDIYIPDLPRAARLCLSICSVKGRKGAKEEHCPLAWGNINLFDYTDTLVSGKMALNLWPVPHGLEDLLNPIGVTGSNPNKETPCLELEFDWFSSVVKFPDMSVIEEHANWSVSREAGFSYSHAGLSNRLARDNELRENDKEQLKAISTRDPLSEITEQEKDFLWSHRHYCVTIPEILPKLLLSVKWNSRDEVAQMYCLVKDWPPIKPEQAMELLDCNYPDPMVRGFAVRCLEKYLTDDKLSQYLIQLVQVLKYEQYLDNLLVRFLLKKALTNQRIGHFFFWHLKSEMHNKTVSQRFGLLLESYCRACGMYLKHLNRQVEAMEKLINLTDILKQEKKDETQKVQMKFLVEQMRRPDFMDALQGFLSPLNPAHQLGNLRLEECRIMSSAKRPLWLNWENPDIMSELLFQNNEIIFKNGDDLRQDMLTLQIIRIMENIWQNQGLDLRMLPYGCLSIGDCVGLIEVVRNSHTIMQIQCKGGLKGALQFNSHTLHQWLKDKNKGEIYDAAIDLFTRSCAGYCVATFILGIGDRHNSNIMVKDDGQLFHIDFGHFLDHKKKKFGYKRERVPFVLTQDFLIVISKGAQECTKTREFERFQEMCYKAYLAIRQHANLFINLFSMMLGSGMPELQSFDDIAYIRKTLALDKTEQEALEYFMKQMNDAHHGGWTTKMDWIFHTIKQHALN
Sequence of PI3Kα (P27986 whole entry partner, species assumed): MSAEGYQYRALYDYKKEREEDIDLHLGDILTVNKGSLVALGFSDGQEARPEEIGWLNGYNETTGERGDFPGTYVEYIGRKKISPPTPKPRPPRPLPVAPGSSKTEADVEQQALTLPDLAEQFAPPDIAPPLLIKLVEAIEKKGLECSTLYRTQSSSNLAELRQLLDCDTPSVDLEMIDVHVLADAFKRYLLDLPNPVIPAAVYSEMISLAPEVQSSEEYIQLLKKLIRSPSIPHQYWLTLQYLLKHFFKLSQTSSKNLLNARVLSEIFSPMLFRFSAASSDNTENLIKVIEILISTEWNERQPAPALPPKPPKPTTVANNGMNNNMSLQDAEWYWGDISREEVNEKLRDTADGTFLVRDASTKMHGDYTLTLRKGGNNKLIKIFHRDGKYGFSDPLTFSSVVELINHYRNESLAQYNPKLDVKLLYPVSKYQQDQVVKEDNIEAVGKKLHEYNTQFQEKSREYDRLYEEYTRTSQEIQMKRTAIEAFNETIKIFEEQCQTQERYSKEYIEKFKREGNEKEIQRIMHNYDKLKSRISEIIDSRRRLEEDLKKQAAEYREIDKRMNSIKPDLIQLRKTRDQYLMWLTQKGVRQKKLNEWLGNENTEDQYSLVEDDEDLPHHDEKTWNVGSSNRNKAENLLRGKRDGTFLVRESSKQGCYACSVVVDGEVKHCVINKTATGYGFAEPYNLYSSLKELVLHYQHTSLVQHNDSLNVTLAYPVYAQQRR

| Compound | IC50 (PI3Kα) | IC50 [1] | GI50 [2] | GI50 [3] | GI50 [4] |
| --- | --- | --- | --- | --- | --- |
| CS(=O)(=O)N1CCN(c2nc3c(N4CCOCC4)nc(-c4cnc(N)nc4)nc3n2[C@H]2CCN(S(C)(=O)=O)C2)CC1 [Example 27, 5-{8-[4-(Methylsulfonyl)piperazin-1-yl]-9-[(3S)-1-(methylsulfonyl)pyrrolidin-3-yl]-6-morpholin-4-yl-9H-purin-2-yl}pyrimidin-2-amine] | 20 to 50 nM | 30 to 100 nM | ≤ 5000 nM | ≤ 5000 nM | ≤ 5000 nM |
| CN(C)CCNc1nc2c(N3CCOCC3)nc(-c3cnc(N)nc3)nc2n1CC1CC1 [Example 28, N′-[2-(2-Aminopyrimidin-5-yl)-9-(cyclopropylmethyl)-6-morpholin-4-yl-9H-purin-8-yl]-N,N-dimethylethane-1,2-diamine] | 10 to 20 nM | 100 to 500 nM | ≤ 5000 nM | ≤ 5000 nM | ≤ 5000 nM |
| Nc1ncc(-c2nc(N3CCOCC3)c3nc(NCCN4CCOCC4)n(CC4CC4)c3n2)cn1 [Example 29, 2-(2-Aminopyrimidin-5-yl)-9-(cyclopropylmethyl)-6-morpholin-4-yl-N-(2-morpholin-4-ylethyl)-9H-purin-8-amine] | 10 to 20 nM | 100 to 500 nM | ≤ 5000 nM | ≤ 5000 nM | ≤ 5000 nM |
| Nc1ncc(-c2nc(N3CCOCC3)c3nc(NCCO)n(CC4CC4)c3n2)cn1 [Example 30, 2-{[2-(2-Aminopyrimidin-5-yl)-9-(cyclopropylmethyl)-6-morpholin-4-yl-9H-purin-8-yl]amino}ethanol] | 10 to 20 nM | 30 to 100 nM | ≤ 5000 nM | ≤ 5000 nM | ≤ 5000 nM |
| Nc1ncc(-c2nc(N3CCOCC3)c3nc(N4CCC(S(=O)(=O)c5ccccc5)C4)n(CC4CC4)c3n2)cn1 (centres unmarked) [Example 31, 5-{9-(Cyclopropylmethyl)-6-morpholin-4-yl-8-[3-(phenylsulfonyl)pyrrolidin-1-yl]-9H-purin-2-yl}pyrimidin-2-amine] | < 10 nM | 30 to 100 nM | ≤ 5000 nM | ≤ 5000 nM | ≤ 5000 nM |
| Cc1nc(N)ncc1-c1nc(N2CCOCC2)c2nc(NCCNS(C)(=O)=O)n(CC3CC3)c2n1 [Example 32, N-(2-{[2-(2-Amino-4-methylpyrimidin-5-yl)-9-(cyclopropylmethyl)-6-morpholin-4-yl-9H-purin-8-yl]amino}ethyl)methanesulfonamide] | 20 to 50 nM | ≥ 500 nM | ≤ 5000 nM | ≤ 5000 nM | ≤ 5000 nM |

Now from value to molecule:

| IC50 (PI3Kα) | IC50 [1] | GI50 [2] | GI50 [3] | GI50 [4] | Compound |
| --- | --- | --- | --- | --- | --- |
| 20 to 50 nM | ≥ 500 nM | ≤ 5000 nM | ≤ 5000 nM | ≤ 5000 nM | Cc1nc(N)ncc1-c1nc(N2CCOCC2)c2nc(N3CCC(N(C)C)C3)n(CC3CC3)c2n1 (centres unmarked) [Example 33, 5-{9-(Cyclopropylmethyl)-8-[3-(dimethylamino)pyrrolidin-1-yl]-6-morpholin-4-yl-9H-purin-2-yl}-4-methylpyrimidin-2-amine] |
| 10 to 20 nM | 100 to 500 nM | ≤ 5000 nM | ≤ 5000 nM | ≤ 5000 nM | Cc1nc(N)ncc1-c1nc(N2CCOCC2)c2nc(N3CCC(N(C)S(C)(=O)=O)C3)n(CC3CC3)c2n1 (centres unmarked) [Example 34, N-{1-[2-(2-Amino-4-methylpyrimidin-5-yl)-9-(cyclopropylmethyl)-6-morpholin-4-yl-9H-purin-8-yl]pyrrolidin-3-yl}-N-methylmethanesulfonamide] |
| 10 to 20 nM | ≥ 500 nM | ≤ 5000 nM | ≤ 5000 nM | ≤ 5000 nM | Cc1nc(N)ncc1-c1nc(N2CCOCC2)c2nc(N3CCC(NS(C)(=O)=O)C3)n(CC3CC3)c2n1 (centres unmarked) [Example 35, N-{1-[2-(2-Amino-4-methylpyrimidin-5-yl)-9-(cyclopropylmethyl)-6-morpholin-4-yl-9H-purin-8-yl]pyrrolidin-3-yl}methanesulfonamide] |
| < 10 nM | 100 to 500 nM | ≤ 5000 nM | ≤ 5000 nM | ≤ 5000 nM | Cc1nc(N)ncc1-c1nc(N2CCOCC2)c2nc(N3CCC(C(N)=O)CC3)n(CC3CC3)c2n1 [Example 36, 1-[2-(2-Amino-4-methylpyrimidin-5-yl)-9-(cyclopropylmethyl)-6-morpholin-4-yl-9H-purin-8-yl]piperidine-4-carboxamide] |
